Experimental data as given in patent US20130022612A1, “METHODS AND COMPOSITIONS FOR MALARIA PROPHYLAXIS” (priority 2004, published 2013).
Non-standard residues stand in square brackets, D forms with d. Residues, ends and D or L forms follow the SMILES beside them. *: point of attachment. Sta = CC(C)C[C@H](N)[C@@H](O)CC(=O)O; Isovaleryl = CC(C)CC(=O)*

How the values were obtained:
[1] = test system: CSP processing in P. berghei sporozoites; assay: Pulse-chase metabolic labeling of CSP processing, P. berghei sporozoites; format: cell-based, Plasmodium berghei; settings: two hour chase at 28° C.; 10 mM E-64, 1 mM PMSF, 0.3 mM aprotinin, 100 mM 3,4 DCl, 75 mM leupeptin, 100 mM TLCK, 1 mM pepstatin, 1 mM 1,10 phenanthroline, 5 mM EDTA
Description: P. berghei sporozoites were incubated in Dulbecco's Modified Eagle Medium (DMEM; Invitrogen, Carlsbad, Calif.) without cysteine (Cys) and methionine (Met), containing 1% BSA and […] L-[35 S]-Cys/Met (Pro-Mix, Amersham Pharmacia) in a total volume of 200 μl for one hour at 28° C. They were then washed and resuspended in DMEM/BSA containing unlabeled Cys/Met at 28° C. for the indicated time in the presence or absence of the indicated protease inhibitor. Sporozoites were then lysed and CSP was immunoprecipitated and analyzed by autoradiography as outlined below.
When sporozoites were incubated with specific inhibitors, their concentrations were as follows: 10 […] E-64; 1 mM phenylmethylsulfonyl fluoride (PMSF); 0.3 mM aprotinin; 100 mM 3,4 DCl; 75 mM leupeptin; 100 mM TLCK; 1 mM pepstatin; 1 mM 1,10 phenanthroline; 5 mM EDTA; 0.5% sodium azide. To check for toxicity by propidium iodide (PI) staining, P. berghei sporozoites were incubated in the presence or absence of the various protease inhibitors for two hours at 28° C., PI was then added to a final concentration of […] for five minutes at 28° C. The sporozoites were washed and viewed under a fluorescent microscope.
Metabolically-labeled sporozoites were lysed in lysis buffer (1% Triton X-100, 50 mM Tris-HCl pH 8.0) with 150 mM NaCl containing a protease inhibitor cocktail (Complete Mini-Tablets, Roche) for one hour at 4° C. The lysates were incubated with mAb 3D11 conjugated to agarose overnight at 4° C. with agitation, and the beads were then washed sequentially with lysis buffer containing 150 mM NaCl, high salt buffer (500 mM NaCl in lysis buffer), lysis buffer without added NaCl, and pre-elution buffer (0.5% Triton X-100, 10 mM Tris-HCl pH 6.8). CSP was eluted with 1% SDS in 0.1 M glycine pH 1.8, neutralized with 1.5 M Tris-HCl pH 8.8, and run on a 7.5% SDS-polyacrylamide gel under nonreducing conditions.
P. berghei sporozoites were metabolically labeled as previously described (Bruna-Romero, O., et al.). Briefly, sporozoites were labeled in Dulbecco's Modified Eagle Medium containing 1% BSA (DMEM/BSA) without Cys/Met and with 400 μCi/ml L-[^35S]Cys/Met for one hour at 28° C. and chased in DMEM/BSA with Cys/Met at 28° C. in the presence of 10 μM E-64 or the indicated concentrations of allicin. Labeled sporozoites were lysed in 1% Triton X-100/150 mM NaCl/50 mM Tris-HCl pH 8.0 with protease inhibitors, and lysates were incubated with 3D11-sepharose overnight at 4° C. CSP was eluted with 1% SDS in 0.1 M glycine pH 1.8, neutralized with Tris-HCl pH 8.8, and run on a 7.5% SDS-polyacrylamide gel under nonreducing conditions. The gel was fixed, enhanced with Amplify (Amersham Pharmacia), dried and exposed to film.
P. berghei sporozoites were metabolically labeled in DMEM without Cys/Met, 1% BSA and 400 μCi/ml L-[^355]-Cys/Met for 1 hour at 28° C. and then kept on ice or chased at 28° C. for the indicated times. Details of this procedure are outlined in (Coppi et al., 2005). To investigate the kinetics of processing in the presence of hepatocytes, sporozoites were labeled as above, chased at 28° C. for 1 hour and then centrifuged (300×g) onto glass coverslips with Hepa 1-6 cells and incubated at 37° C. for 5, 15 or 30 minutes. To investigate the effect of antibodies on CSP cleavage, sporozoites were labeled as above and then chased for 2 hours in the presence of the indicated antibody. Monoclonal antibodies were used as purified antibodies at the indicated concentrations and the IgG fraction of the NH2-terminal antiserum was used after isolation by Protein A (Vivapure maxiprepA; Sartorius, Edgewood, N.Y.). In all cases, labeled sporozoites (with or without Hepa 1-6 cells) were lysed and labeled CSP was immunoprecipitated with mAb-3D11 conjugated to sepharose or in the case of P. falciparum CSP, with mAb-2A10 conjugated to sepharose, as previously described (Coppi et al., 2005). CSP was eluted from the beads, run on an SDS-PAGE gel which was enhanced, dried and exposed to film. […]

[2] = test system: P. berghei sporozoites; format: cell-based, Plasmodium berghei; settings: sporozoites preincubated two hours with inhibitor, Hepa 1-6 cells, one hour
Description: %invasion=total sporozites−extracellular sporozites×100/total sporozites
Invasion assays were performed as previously described (Pinzon-Ortiz, C., et al.) with some modifications. […] Cells were then washed, fixed, and sporozoites were stained with a double staining assay that distinguishes between intracellular and extracellular sporozoites (Renia, L., et al.). […]

[3] = test system: CSP cleavage in P. berghei sporozoites; assay: Cell contact assay (CSP cleavage on contact with hepatocytes); format: cell-based, Plasmodium berghei
Description: Hepa 1-6 cells were seeded on glass coverslips at a density of 2×10^5 cells per coverslip and grown until confluent. P. berghei sporozoites were incubated in DMEM±10 mM E-64 at 4° C. for two hours. Thirty minutes before sporozoites were added to coverslips, Cytochalasin D (CD) was added to all samples (final concentration, […]). Sporozoites were centrifuged onto coverslips (1250×g) for five minutes at 4° C. Coverslips were then brought to 37° C. for two minutes, fixed with 4% paraformaldehyde and stained with either mAb 3D11 followed by anti-mouse Ig FITC or the N-terminal antiserum (1:100) followed by anti-rabbit Ig FITC. […] As a control, sporozoites were spun onto coverslips without cells using the protocol outlined above.

[4] = test system: P. berghei sporozoites; settings: sporozoites incubated with inhibitor for two hours, then metabolically labeled
Description: Panel A illustrates P. berghei sporozoites were metabolically labeled with [35 S]-Cys/Met and then washed and kept on ice (lane 1) or chased with cold medium for two hours at 28° C., in the absence (lane 2) or presence of the indicated protease inhibitors (lanes 3-11). After the chase, sporozoites were lysed, CSP was immunoprecipitated and analyzed by SDS-PAGE and autoradiography (abbreviations: Apr, aprotinin; DCl, 3,4 DCl; Leu, leupeptin; Pep, pepstatin; Phen, 1,10 phenanthroline). Panel B illustrates P. falciparum sporozoites were metabolically labeled as above and then kept on ice (lane 1) or chased with cold medium for ninety minutes in the absence (lane 2) or presence of E-64 (lane 3). Samples were processed as outlined above. Panel C illustrates P. berghei sporozoites were preincubated with buffer (lane 1) or the indicated compounds, washed, metabolically labeled with [^35S]-Cys/Met, lysed, and CSP was immunoprecipitated and analyzed by SDS-PAGE and autoradiography. (Abbreviations: Az=sodium azide).
In addition to the above, pulse-chase metabolic labeling experiments were performed with sporozoites of the human malaria parasite, Plasmodium falciparum. […] In order to insure that the protease inhibitors were not toxic to sporozoites, sporozoites were incubated with the various inhibitors for two hours and then propidium iodide (hereinafter, “PI”) was added, which is a fluorescent molecule that enters permeabilized cells.

[5] = biological target: Plasmodium berghei circumsporozoite protein (CSP), full-length, high molecular weight form (Plasmodium berghei) (UniProt P23093); assay: cell-based or functional assay

Row | Compound | effect on CSP processing [1] | effect on sporozoite invasion [2] | further results
1 | c1cnc2c(c1)ccc1cccnc12 [1,10 phenanthroline] | no effect on CSP processing |  | 
2 | aprotinin | Neither compound had an effect on CSP processing | did not have significant inhibitory activity on invasion | 
3 | C=C1[C@@H](C)[C@H]2[C@H](Cc3ccccc3)NC(=O)[C@]23[C@H](OC(C)=O)/C=C/[C@@](C)(O)C(=O)[C@@H](C)C/C=C/[C@H]3[C@@H]1O [CD, cytochalasin D] |  |  | percentage staining with the N-terminal antiserum ([3]; experiment 1, no cells, visualized with α-N): 85% ± 1.1; Number of Sporozoites Visualized ([3]; experiment 1, wildtype sporozoites, Hepa 1-6, visualized with 3D11): 244 ± 3; Number of Sporozoites Visualized ([3]; experiment 2, GFP sporozoites, Hepa 1-6, visualized by GFP): 452 ± 8; Number of Sporozoites Visualized ([3]; experiment 2, GFP sporozoites, Hepa 1-6, visualized with α-N): 98 ± 2
4 | O=c1oc(Cl)c(Cl)c2ccccc12 [3,4 DCl, 3,4-dichloroisocoumarin] | Neither compound had an effect on CSP processing | did not have significant inhibitory activity on invasion | 
5 | O=C(O)CN(CCN(CC(=O)O)CC(=O)O)CC(=O)O [EDTA] | no effect on CSP processing |  | 
6 | O=S(=O)(F)Cc1ccccc1 [PMSF, phenylmethylsulfonyl fluoride] | inhibited CSP processing | had inhibitory activity | CSP synthesis after incubation with inhibitor [4]: not affected
7 | Cc1ccc(S(=O)(=O)N[C@@H](CCCCN)C(=O)CCl)cc1 [TLCK] | inhibited CSP processing |  | 
8 | mAb 3D11 (antibody) |  |  | inhibition of CSP cleavage at 10 µg/ml, pulse-chase metabolic labeling [5]: 50 to 75%
9 | CC(C)CC(=O)N[C@H](C(=O)N[C@H](C(=O)N[C@@H](CC(C)C)[C@@H](O)CC(=O)N[C@@H](C)C(=O)N[C@@H](CC(C)C)[C@@H](O)CC(=O)O)C(C)C)C(C)C [pepstatin] (Isovaleryl-VV[Sta]A[Sta]-OH) | no effect on CSP processing | no effect on invasion | 
10 | CC(=O)N[C@@H](CC(C)C)C(=O)N[C@@H](CC(C)C)C(=O)N[C@H](C=O)CCCNC(=N)N [leupeptin] | inhibited CSP processing | had inhibitory activity | CSP synthesis after incubation with inhibitor [4]: not affected
